Laboratory results from article PMC7564829, “Potent Broad-Spectrum Antibacterial Activity of Amphiphilic Peptides against Multidrug-Resistant Bacteria” (Microorganisms, 2020).
In brackets after ≈: the same amount, converted by molar mass. Like-named read-outs stand apart in the source and are kept apart here. Ends that are not written are not given here.

What was measured:
[1] = test system: MDR E. coli B2 (mcr-1 + blaNDM-5); experiment: microbe, parasite or virus in culture; assay type: cell-based
Experimental: (§1) Experiments were performed with two biological replicates.

[2] = test system: E. coli 1N31; experiment: MIC, tigecycline-resistant clinical isolate; assay type: cell-based
Experimental: as §1

[3] = test system: E. coli 1A34; experiment: MIC, tigecycline-resistant clinical isolate; assay type: cell-based
Experimental: as §1

[4] = test system: Shigella 1F25; experiment: MIC, tigecycline-resistant clinical isolate; assay type: cell-based; conditions: Shigella 1F25, feces, broth micro-dilution
Experimental: as §1

[5] = test system: E. coli 2W25; experiment: MIC, tigecycline-resistant clinical isolate; assay type: cell-based
Experimental: as §1

[6] = test system: E. coli 1C1; experiment: MIC, tigecycline-resistant clinical isolate; assay type: cell-based
Experimental: as §1

[7] = test system: E. coli 1F31; experiment: MIC, tigecycline-resistant clinical isolate; assay type: cell-based
Experimental: as §1

[8] = test system: E. coli 1F16; experiment: MIC, tigecycline-resistant clinical isolate; assay type: cell-based
Experimental: as §1

[9] = test system: E. coli 2A19; experiment: MIC, tigecycline-resistant clinical isolate; assay type: cell-based
Experimental: as §1

[10] = test system: E. coli 1N28; experiment: MIC, tigecycline-resistant clinical isolate; assay type: cell-based
Experimental: as §1

[11] = Hydrophobicity by RP-HPLC (percent acetonitrile at elution); assay type: physicochemical; conditions: acetonitrile in water, 0.1% (v/v) TFA, higher percent = higher hydrophobicity
Experimental: All peptides used in this study were synthesized by GL Biochem (Shanghai, China) using a solid phase peptide synthesis (SPPS) method, and their accurate molecular weights were determined by matrix-assisted laser desorption/ionization time-of-flight mass spectrometry (MALDI-TOF MS). The peptide purity (>95%) and retention time were determined by reversed-phase high-performance liquid chromatography (HPLC).
A collection of tryptophan-rich linear peptides on the basis of MP196 (RWRWRW-NH2) was designed by increasing peptide length or positive charge or hydrophobicity, replacing amino acids and/or N-terminal acetylation (Table 1). These peptides were synthesized via solid-phase peptide synthesis (SPPS), purified by reverse-phase high-performance liquid chromatography (RP-HPLC) (Figure S1) and validated by matrix-assisted laser desorption/ionization time-of-flight mass spectrometry (MALDI-TOF MS) (Figure S2). […] All engineered peptides belong to cationic AMPs, with 3 or 6 net charges. The percentage of acetonitrile at RP-HPLC elution was regarded as a relative measure of peptides’ hydrophobicity. […] The hydrophobicity order was listed as follows: WRK-12 > WL-9 > WR-6 > WV-9 > KW-6 > WKK-12 > WR-12 > MP196 > WK-6.

[12] = test system: MRSA T144; experiment: MIC/MBC, broth micro-dilution; assay type: cell-based, Staphylococcus aureus
Experimental: as §1

[13] = test system: E. coli 1F28 (tet(X4)); experiment: MIC/MBC, broth micro-dilution; assay type: cell-based
Experimental: as §1

[14] = test system: E. faecalis A4 (VRE); experiment: MIC/MBC, broth micro-dilution; assay type: cell-based
Experimental: as §1

[15] = test system: E. coli B3-1 (tet(X4)); experiment: MIC/MBC, broth micro-dilution; assay type: cell-based
Experimental: as §1

[16] = test system: S. enteritidis ATCC 13076; experiment: microbe, parasite or virus in culture; assay type: cell-based
Experimental: as §1

[17] = test system: E. coli ATCC 25922; experiment: microbe, parasite or virus in culture; assay type: cell-based
Experimental: as §1

[18] = test system: S. aureus ATCC 29213; experiment: microbe, parasite or virus in culture; assay type: cell-based
Experimental: as §1

[19] = test system: S. aureus 215 (cfr + LZD^R); experiment: microbe, parasite or virus in culture; assay type: cell-based; conditions: 18 h
Experimental: as §1

[20] = ref [19]; cited from earlier work
Excerpt: Antimicrobial peptides (AMPs), also named host defense peptides, are originated from various organisms and are important immune modulation molecules that protect the host from the invading pathogens. […] However, the high cost of peptides, the lability to proteases, less bioavailable and nonspecific toxicity still hinder these AMPs in clinical practice. A more rational design of AMPs contributes to improving their stability and antibacterial activity. ...

[21] = test system: RBCs; conditions: cited from earlier work
[22] = MDR B2 (mcr-1 + blaNDM-5, 18 h)
[23] = S. aureus 215 (cfr + LZD^R), broth micro-dilution CLSI 2018, MHB, 37 °C
[24] = Staphylococcus aureus, MRSA T144, broth micro-dilution CLSI 2018, MHB, 18 h, 37 °C, read-out: MIC
[25] = Escherichia coli, E. coli 1F28 (tet(X4)), broth micro-dilution CLSI 2018, MHB, 18 h, 37 °C, read-out: MIC
[26] = Enterococcus faecalis, VRE, 18 h
[27] = Escherichia coli, E. coli B3-1 (tet(X4)), broth micro-dilution CLSI 2018, MHB, 18 h, 37 °C, read-out: MIC
[28] = Escherichia coli, ATCC25922, 18 h
[29] = Escherichia coli, Table 2, E. coli B2 (mcr-1 + blaNDM-5), broth micro-dilution CLSI 2018, MHB, 18 h, 37 °C, read-out: MIC
[30] = Staphylococcus aureus, ATCC29213, 18 h

Molecule: WRWRWR-NH2 [WR-6]
- MIC [1, 22]: >64 µg/mL

Molecule: Ac-WKVKWKVKWKVK-NH2 [WKK-12]
- MIC ([2]; 1N31, 4 h): 64 µg/mL
- MIC ([3]; 1A34, 4 h): 64 µg/mL
- MIC [4]: 64 µg/mL
- MIC ([5]; 2W25, 4 h): 64 µg/mL
- MIC ([6]; 1C1, 4 h): 64 µg/mL
- MIC ([7]; 1F31, 4 h): 64 µg/mL
- MIC ([8]; 1F16, 4 h): 64 µg/mL
- MIC ([9]; 2A19, 4 h): 128 µg/mL
- MIC ([10]; 1N28, 4 h): 64 µg/mL
- H (hydrophobicity, percent of acetonitrile at HPLC elution) [11]: 31.424 percent acetonitrile
- MIC ([12]; T144, 18 h): 64 µg/mL
- MIC ([13]; 1F28 (tet(X4, 18 h))): 64 µg/mL
- MIC ([14]; A4 (VRE, 18 h)): 64 µg/mL
- MIC ([15]; B3-1 (tet(X4, 18 h))): 64 µg/mL
- MIC ([16]; ATCC 13076, 18 h): 64 µg/mL
- MIC ([17]; ATCC 25922, 18 h): 128 µg/mL
- MIC [1, 22]: 64 µg/mL
- MIC ([18]; ATCC 29213, 18 h): 128 µg/mL
- MIC [19, 23]: 64 µg/mL

Molecule: WRLRWRLRWRLR-NH2 [WR-12]
- MIC [1, 22]: 2 µg/mL

Molecule: CN(C)c1cc(NC(=O)CNC(C)(C)C)c(O)c2c1C[C@H]1C[C@H]3[C@H](N(C)C)C(O)=C(C(N)=O)C(=O)[C@@]3(O)C(O)=C1C2=O [TIG, tigecycline, reference compound]
- MIC ([2]; Escherichia coli, E. coli 1N31, tigecycline-resistant clinical isolate, broth micro-dilution, read-out: MIC): 128 µg/mL (≈ 219 µM)
- MIC ([3]; Escherichia coli, E. coli 1A34, anal swab, tigecycline-resistant clinical isolate, broth micro-dilution, read-out: MIC): 16 µg/mL (≈ 27.3 µM)
- MIC ([4]; read-out: MIC): 8 µg/mL (≈ 13.7 µM)
- MIC ([5]; Escherichia coli, E. coli 2W25, water, tigecycline-resistant clinical isolate, broth micro-dilution, read-out: MIC): 64 µg/mL (≈ 109 µM)
- MIC ([6]; Escherichia coli, E. coli 1C1, dust, tigecycline-resistant clinical isolate, broth micro-dilution, read-out: MIC): 32 µg/mL (≈ 54.6 µM)
- MIC ([7]; Escherichia coli, E. coli 1F31, tigecycline-resistant clinical isolate, broth micro-dilution, read-out: MIC): 32 µg/mL (≈ 54.6 µM)
- MIC ([8]; Escherichia coli, E. coli 1F16, feces, tigecycline-resistant clinical isolate, broth micro-dilution, read-out: MIC): > 64 µg/mL
- MIC ([9]; Escherichia coli, E. coli 2A19, tigecycline-resistant clinical isolate, broth micro-dilution, read-out: MIC): 8 µg/mL (≈ 13.7 µM)
- MIC ([10]; Escherichia coli, E. coli 1N28, nasal swab, tigecycline-resistant clinical isolate, broth micro-dilution, read-out: MIC): 32 µg/mL (≈ 54.6 µM)
- MIC [12, 24]: 2 µg/mL (≈ 3.41 µM)
- MIC [13, 25]: 32 µg/mL (≈ 54.6 µM)
- MIC [14, 26]: 0.125 µg/mL (≈ 0.213 µM)
- MIC [15, 27]: 32 µg/mL (≈ 54.6 µM)
- MIC ([16]; Salmonella enterica, 18 h): 0.125 µg/mL (≈ 0.213 µM)
- MIC [17, 28]: 0.125 µg/mL (≈ 0.213 µM)
- MIC [1, 29]: 2 µg/mL
- MIC [18, 30]: 0.125 µg/mL (≈ 0.213 µM)
- MIC ([19]; Staphylococcus aureus): 1 µg/mL (≈ 1.71 µM)

Molecule: CN[C@H](CC(C)C)C(=O)N[C@H]1C(=O)N[C@@H](CC(N)=O)C(=O)N[C@H]2C(=O)N[C@H]3C(=O)N[C@H](C(=O)N[C@H](C(=O)O)c4cc(O)cc(O)c4-c4cc3ccc4O)[C@H](O)c3ccc(c(Cl)c3)Oc3cc2cc(c3O[C@@H]2O[C@H](CO)[C@@H](O)[C@H](O)[C@H]2O[C@H]2C[C@](C)(N)[C@H](O)[C@H](C)O2)Oc2ccc(cc2Cl)[C@H]1O [VAN, vancomycin]
- MIC ([12]; Staphylococcus aureus, MRSA, 18 h): 1 µg/mL (≈ 0.69 µM)
- MIC ([13]; Escherichia coli, 18 h): 128 µg/mL (≈ 88.3 µM)
- MIC [14, 26]: > 128 µg/mL
- MIC ([15]; Escherichia coli, 18 h): 64 µg/mL (≈ 44.2 µM)
- MIC ([16]; Salmonella enterica, 18 h): 128 µg/mL (≈ 88.3 µM)
- MIC [17, 28]: 128 µg/mL (≈ 88.3 µM)
- MIC ([1]; Escherichia coli, 18 h): 128 µg/mL (≈ 88.3 µM)
- MIC [18, 30]: 0.5 µg/mL (≈ 0.345 µM)
- MIC ([19]; Staphylococcus aureus): 1 µg/mL (≈ 0.69 µM)

Molecule: WKWKWK-NH2 [WK-6]
- MIC [1, 22]: >64 µg/mL

Molecule: WKVWKVWKV-NH2 [WV-9]
- MIC [1, 22]: >64 µg/mL

Molecule: WRLWRLWRL-NH2 [WL-9]
- MIC [1, 22]: 8 µg/mL

Molecule: colistin
- MIC ([12]; MRSA T144, broth micro-dilution CLSI 2018, MHB, 18 h, 37 °C): 128 µg/mL
- MIC ([13]; E. coli 1F28 (tet(X4)), broth micro-dilution CLSI 2018, MHB, 18 h, 37 °C): 0.25 µg/mL
- MIC ([14]; E. faecalis A4 (VRE), broth micro-dilution CLSI 2018, MHB, 18 h, 37 °C): 128 µg/mL
- MIC ([15]; E. coli B3-1 (tet(X4)), broth micro-dilution CLSI 2018, MHB, 18 h, 37 °C): 0.25 µg/mL
- MIC ([16]; S. enteritidis ATCC 13076, broth micro-dilution CLSI 2018, MHB, 18 h, 37 °C): 0.25 µg/mL
- MIC ([17]; E. coli ATCC 25922, broth micro-dilution CLSI 2018, MHB, 18 h, 37 °C): 0.5 µg/mL
- MIC ([1]; Table 2, E. coli B2 (mcr-1 + blaNDM-5), broth micro-dilution CLSI 2018, MHB, 18 h, 37 °C): 8 µg/mL
- MIC ([18]; S. aureus ATCC 29213, broth micro-dilution CLSI 2018, MHB, 18 h, 37 °C): 16 µg/mL
- MIC [19, 23]: 64 µg/mL

Molecule: KWKWKW-NH2 [KW-6]
- MIC [1, 22]: >64 µg/mL

Molecule: CC1(C)S[C@@H]2[C@H](NC(=O)[C@H](N)c3ccccc3)C(=O)N2[C@H]1C(=O)O [AMP, ampicillin]
- MIC [12, 24]: 32 µg/mL (≈ 91.6 µM)
- MIC [13, 25]: > 128 µg/mL
- MIC ([14]; Enterococcus faecalis, E. faecalis A4 (VRE), broth micro-dilution CLSI 2018, MHB, 18 h, 37 °C, read-out: MIC): 32 µg/mL (≈ 91.6 µM)
- MIC [15, 27]: > 128 µg/mL
- MIC ([16]; Salmonella enterica, S. enteritidis ATCC 13076, broth micro-dilution CLSI 2018, MHB, 18 h, 37 °C, read-out: MIC): 8 µg/mL (≈ 22.9 µM)
- MIC ([17]; Escherichia coli, ATCC25922, E. coli ATCC 25922, broth micro-dilution CLSI 2018, MHB, 18 h, 37 °C, read-out: MIC): 8 µg/mL (≈ 22.9 µM)
- MIC [1, 29]: > 128 µg/mL
- MIC ([18]; Staphylococcus aureus, ATCC29213, S. aureus ATCC 29213, broth micro-dilution CLSI 2018, MHB, 18 h, 37 °C, read-out: MIC): 0.25 µg/mL (≈ 0.715 µM)
- MIC ([19]; Staphylococcus aureus): 64 µg/mL (≈ 183 µM)

Molecule: RWRWRW-NH2 [MP196]
- MIC [1, 22]: >64 µg/mL
- in vivo stability [20]: low in vivo stability
- hemolysis to RBCs [21]: high hemolysis
